Among the data in ChEMBL document CHEMBL3507680, “University of Dundee, Gates Library screen for HepG2 cell viability” are cytotoxicity values, retold here.

Structures are written as SMILES.

The nature of this data set: Human HepG2 cell viability assay in 384 well format. The data set is classed as toxicity, cell-based. The arrangement: dose 125 nL, time 70.5 hour; cytotoxicity at 70.5 h: concentration not given beside the values. The settings on record: HepG2 cells, read-out: Inhibition.

As to `c1ncc2c(n1)CN(c1ncnc3[nH]ccc13)CC2`, the cytotoxicity at 70.5 h is -4.47%.
Under `Cc1cccc(C(=O)NC(C(=O)NCc2ccc(O)nc2)C(C)C)c1` (stereo not given) stands -10.8%.
In the case of `Cc1nc(CCCNC(=O)Nc2ccc(F)cc2F)n[nH]1` it was -6.94%; in that of `CC(CCc1ccc(F)c(F)c1)NS(=O)(=O)Cc1ccon1` (stereo not given), 20.5%.
Under `CCNC(=O)NC(c1ccc(C)cc1)c1cccc(S(C)(=O)=O)c1` (stereo not given) stands -11%; under `Cc1ccc(OCC(C)NS(=O)(=O)Cc2ccon2)cc1` (stereo not given), -9.91%.
In the case of `CC(C)N(C(=O)Cn1nc2n(c1=O)CCCCC2)C1CCC1`, the cytotoxicity at 70.5 h was -9.98%.
In the case of `NC(=O)CCC1CCCN(c2ccc3ccc(F)cc3n2)C1` (stereo not given) it was -3.15%; in that of `Cc1ccn(CC(=O)NCCCOc2ccccc2F)c(=O)c1`, -7.65%; in that of `Cc1nn(C)c(C)c1C(=O)NC(C)CC(=O)c1cccs1` (stereo not given), -11.1%.
In the case of `Cc1c(C(=O)NC(C)CC(=O)c2cccs2)cnn1C` (stereo not given), the cytotoxicity at 70.5 h came to 19.6%.
As to `CC(c1cccnc1)N(C)C(=O)NCCOc1ccc(C#N)cc1` (stereo not given), the cytotoxicity at 70.5 h was -11.1%.
Under `CC(C)CC(NCc1ccsc1)c1ccccn1` (stereo not given) stands 22.4%; under `CC(C)CC(NCc1cscn1)c1ccccn1` (stereo not given), -7.87%.
In the case of `N#Cc1ccccc1CN1CCC(CN2CCOCC2)C1` (stereo not given), the cytotoxicity at 70.5 h is -5.31%.
For `Nc1nccnc1C(=O)NC1CCN(Cc2ccccc2)C1` (stereo not given), the cytotoxicity at 70.5 h was -10.2%.
Under `O=C(CCc1nnc(-c2ccsc2)o1)NCC1CCN(C2CC2)C1` (stereo not given) stands -4.06%.
Turning to `O=C(CCc1nc(-c2cccnc2)no1)NCC1CCN(C2CC2)C1` (stereo not given), the cytotoxicity at 70.5 h was -17.6%.
In the case of `Cc1nnc(CN(Cc2cccc3c2OCO3)CC2CCCO2)n1C` (stereo not given) it was -19.6%.
In the case of `O=C(Cn1cnc2ccsc2c1=O)c1ccc2c(c1)OCCO2` it was -8.67%; in that of `NC(=O)CN(Cc1ncc(-c2ccc(F)cc2)o1)C1CCCC1`, -14.2%; in that of `Cc1cccnc1NC(=O)c1ccc(F)c(S(=O)(=O)NC2CC2)c1`, -2.44%.
Under `O=C(NCc1ccnc(OCC2CC2)c1)C1COc2ccccc2O1` (stereo not given) stands 0.151%; under `CCc1cc(NCCCc2nc(C)no2)nc(-c2ccncc2)n1`, -5.75%.
Regarding `NC(=O)CC1CCN(Cc2ccccc2OCC(F)(F)F)CC1`, the cytotoxicity at 70.5 h was -8.22%.
In the case of `CCOc1cc(NC(=O)N2CCC3(CCOCC3)C2)ccc1C` it was -7.4%; in that of `CCc1cc(NCCCNS(C)(=O)=O)nc(-c2ccncc2)n1`, -9.08%; in that of `CC(C)N(C)C(=O)C1CCN(Cc2cnc3ccccn23)CC1`, -5.16%.
In the case of `Cc1csc(CCNC(=O)N2CCC(NC(=O)OC(C)(C)C)CC2)n1` it was -11.5%; in that of `Cc1csc(CCNC(=O)N2CCC(n3cccc3)CC2)n1`, -7.68%.
Consider `N#CC1(NC(=O)c2cc(Cl)ccc2OC(F)F)CCOCC1`, for which the cytotoxicity at 70.5 h is -17.7%.
In the case of `CN(C(=O)C1CCN(Cc2cnc3ccccn23)CC1)c1ccccc1` it was -7.69%; in that of `COc1ncc(NCc2ccc(C#N)cc2)cc1C(N)=O`, -4.6%.
Under `CN(CC(O)C(F)(F)F)C(=O)Nc1cccc(Cn2cccn2)c1` (stereo not given) stands -6.9%.
Under `COc1ncc(NCc2cc(C#N)cs2)cc1C(N)=O` stands -5.52%; under `COc1ncc(NCc2ccc(F)cc2)cc1C(N)=O`, -6.54%; under `CN(CC(O)C(F)(F)F)C(=O)Nc1cccc(N2CCCC2)c1` (stereo not given), -3.73%.
As to `O=C(NCCc1nccs1)N1CCC(n2cccc2)CC1`, the cytotoxicity at 70.5 h was -9.14%.
Under `NCC(CO)Cc1cccc(OC(F)(F)F)c1` (stereo not given) stands 2.39%; under `NCC(CO)Cc1ccc(OC(F)(F)F)cc1` (stereo not given), -5.55%; under `CN(C)c1cc(CNC(=O)C2COc3ccccc3O2)ccn1` (stereo not given), -6.63%.
In the case of `CN(C(=O)c1ccc(Cl)cn1)c1ccccc1S(C)(=O)=O` it was -5.72%; in that of `Cc1oncc1NS(=O)(=O)c1c[nH]c2ncccc12`, -3.88%.
Under `CCN(CC)CCSc1ncnc2[nH]ncc12` stands 1.79%; under `CC(C)(C)C(=O)NCCNCc1ccc(Cl)c2cccnc12`, -0.239%.
`CCOc1ccccc1N(C)C(=O)c1cscn1`: the cytotoxicity at 70.5 h came to 0.806%.
In the case of `CCCN1Cc2ccccc2CC1C(=O)NC` (stereo not given) it was -0.114%.
Under `CC(C)COc1cncc(NCC(O)c2ccco2)n1` (stereo not given) stands 33.1%; under `Cc1nn(C)c(C)c1OCC(=O)NCC(O)c1ccccc1F` (stereo not given), 0.771%; under `CNC(=O)C1Cc2ccccc2CN1CCCc1ccccc1` (stereo not given), -4.46%.
Regarding `COc1ccc(C#N)cc1CSCCN1CCOCC1`, the cytotoxicity at 70.5 h was -9.88%.
Under `N#Cc1ccc(CSCCN2CCOCC2)cc1` stands -5.15%; under `N#Cc1ccc(F)c(CSCCN2CCOCC2)c1`, -7.03%; under `Cc1nc(C)n(CC2CCCCN2CCCC#N)n1` (stereo not given), 6.75%.
Under `c1ccc(CCN2CCCC(c3noc(C4CC4)n3)C2)cc1` (stereo not given) stands -5.63%; under `CC(=O)N1CCC(C(=O)Nc2nc(C3CC3)cs2)CC1`, -4.64%.
Take `Cc1cc(Br)oc1C(=O)N1CCCN(CC(N)=O)CC1`: the cytotoxicity at 70.5 h was -7.35%.
With `CCN(CC)C(C)CNC(=O)c1cccnc1Oc1cccnc1` (stereo not given), the cytotoxicity at 70.5 h was -5.14%.
Take `COc1ccc(C(CO)NC(=O)Nc2cccc(C(C)=O)c2)cc1` (stereo not given): the cytotoxicity at 70.5 h is -6.17%.
Under `COc1cc(C)nc(N2CCN(C(=O)CCc3ccsc3)CC2)n1` stands -4.26%; under `CCN1CCC(NC(=O)CN2CCCCC2Cn2cccn2)CC1` (stereo not given), -4.33%.
In the case of `NC(=O)CCn1ccc(NC(=O)c2ccc(Br)o2)n1` it was -5.23%; in that of `Cc1ccc(-c2nc(CN3CCOC(Cn4cncn4)C3)cs2)o1` (stereo not given), -6.85%; in that of `CNC(=O)CCN1CCN(C(C)c2ccc(Cl)cc2)CC1` (stereo not given), -6.21%.
Under `Cc1ccc(CNCCS(=O)(=O)N2CCOCC2)cc1C` stands -6.06%; under `CC(c1ccc(Cl)cc1)N1CCN(CCCS(N)(=O)=O)CC1` (stereo not given), 35.8%.
As for `Cn1cc(C(=O)NCc2ccc(N3CCNC(=O)C3)c(F)c2)cn1`, the cytotoxicity at 70.5 h was -4.04%.
On to `Cc1nc(C)n(CC2CCCCN2CCCS(N)(=O)=O)n1` (stereo not given), for which the cytotoxicity at 70.5 h is -5.16%.
In the case of `Cc1cc(C)n(CC2CCCCN2CCCS(=O)(=O)N(C)C)n1` (stereo not given) it was 1.93%; in that of `CCOC(C)c1nc(CN2CCN(CC(F)F)CC2)cs1` (stereo not given), -5.97%.
In the case of `N#Cc1cccc(OCCN2CCCC(c3noc(C4CC4)n3)C2)c1` (stereo not given), the cytotoxicity at 70.5 h is -5.39%.
In the case of `Cc1cccc(NC(=O)NCC2(N3CCOCC3)CCSC2)c1` (stereo not given) it was 3.35%.
Under `CC1CCN(CCNC(=O)Nc2ccc(F)cc2Cl)CC1` stands 9.06%.
In the case of `CCC(CNC(=O)c1ccc(F)cc1F)N1CCc2ccccc2C1` (stereo not given) it was -7.79%; in that of `CCC(CNC(=O)c1cncc(Br)c1)N1CCc2ccccc2C1` (stereo not given), -5.93%.
